Measured values reported in patent US20040138109A1, “Potent inhibitor of HCV serine protease” (Boehringer Ingelheim Pharmaceuticals, Inc., priority 2002, published 2004).

Experiments:
[1] = Oral bioavailability in animal species; type: in vivo; conditions: various animal species
From the text: (§1) A distinguishing feature of the Compound (1) inhibitor series is the presence of a C-terminal carboxylic acid functionality.

[2] = target: NS3 serine protease of HCV genotype 1b (Hepatitis C virus genotype 1b, UniProt P26663); assay: Steady state velocity analysis with NS3 serine protease, HCV genotype 1b; type: biochemical; conditions: non-covalent, competitive mode of inhibition, read-out: Inhibitor constant (Ki)
Sequence of NS3 serine protease of HCV genotype 1b (P26663 1027-1657): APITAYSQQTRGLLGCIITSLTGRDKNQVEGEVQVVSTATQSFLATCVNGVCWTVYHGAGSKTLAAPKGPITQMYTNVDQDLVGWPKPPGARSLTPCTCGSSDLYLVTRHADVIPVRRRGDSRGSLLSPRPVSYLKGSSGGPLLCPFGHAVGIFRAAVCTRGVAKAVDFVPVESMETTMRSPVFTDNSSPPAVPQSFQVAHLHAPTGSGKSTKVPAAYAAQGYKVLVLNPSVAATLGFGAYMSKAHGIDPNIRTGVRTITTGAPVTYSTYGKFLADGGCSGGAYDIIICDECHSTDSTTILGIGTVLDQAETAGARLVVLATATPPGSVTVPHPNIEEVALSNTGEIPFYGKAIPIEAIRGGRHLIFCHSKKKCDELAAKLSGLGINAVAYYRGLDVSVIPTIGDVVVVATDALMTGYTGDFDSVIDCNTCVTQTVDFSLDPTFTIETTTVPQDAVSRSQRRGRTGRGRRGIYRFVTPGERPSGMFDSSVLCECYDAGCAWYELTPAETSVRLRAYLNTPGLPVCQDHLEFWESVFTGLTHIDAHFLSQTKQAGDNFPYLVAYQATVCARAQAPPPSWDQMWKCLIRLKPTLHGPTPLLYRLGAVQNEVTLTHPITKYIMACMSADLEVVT
Sequence of NS3 serine protease of HCV genotype 1b (P26663 1658-1711): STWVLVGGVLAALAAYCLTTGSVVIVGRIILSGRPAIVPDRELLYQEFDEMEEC
From the text: as §1

HCV RNA replication = HCV RNA replication in the replicon cell model system; type: cell-based; conditions: human cells
From the text: as §1

[3] = target: NS3 serine protease of HCV genotype 1a (Hepatitis C virus genotype 1a, UniProt P27958); assay: Steady state velocity analysis with NS3 serine protease, HCV genotype 1a; type: biochemical; conditions: non-covalent, competitive mode of inhibition, read-out: Inhibitor constant (Ki)
Sequence of NS3 serine protease of HCV genotype 1a (P27958 1027-1657): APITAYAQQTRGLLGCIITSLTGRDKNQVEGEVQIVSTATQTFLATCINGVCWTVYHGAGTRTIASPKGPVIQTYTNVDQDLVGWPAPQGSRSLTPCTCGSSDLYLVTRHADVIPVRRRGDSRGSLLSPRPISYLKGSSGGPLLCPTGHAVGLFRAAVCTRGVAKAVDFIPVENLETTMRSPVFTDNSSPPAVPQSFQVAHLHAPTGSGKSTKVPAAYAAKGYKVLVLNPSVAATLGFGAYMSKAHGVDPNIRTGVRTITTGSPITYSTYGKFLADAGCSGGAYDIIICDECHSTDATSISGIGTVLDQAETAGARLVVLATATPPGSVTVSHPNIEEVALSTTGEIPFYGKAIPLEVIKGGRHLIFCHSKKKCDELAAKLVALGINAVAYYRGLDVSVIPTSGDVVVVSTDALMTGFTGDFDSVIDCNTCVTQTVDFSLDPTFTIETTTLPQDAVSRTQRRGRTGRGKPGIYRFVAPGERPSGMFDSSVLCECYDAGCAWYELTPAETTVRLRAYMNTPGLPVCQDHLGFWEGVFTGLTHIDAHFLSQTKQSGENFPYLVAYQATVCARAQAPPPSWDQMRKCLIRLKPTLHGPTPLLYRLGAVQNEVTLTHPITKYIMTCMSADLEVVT
Sequence of NS3 serine protease of HCV genotype 1a (P27958 1658-1711): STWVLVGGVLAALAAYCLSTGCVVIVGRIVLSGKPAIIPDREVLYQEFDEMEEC
From the text: as §1

HCV = assay: Clinical study in patients with chronic HCV infection, viral load; type: in vivo, human; conditions: HCV infected patients, oral formulation, within 48 hours after first administration, some patients
Description: (§2) In a first single rising dose trial in healthy male subjects the tolerability and pharmacokinetic parameters of Compound (1) were investigated. […] The degree of viral load reduction upon administration of Compound (1) was a significant and unexpected finding, with some patients even experiencing up to a 3 log reduction in viral load within 48 hours after the first administration of Compound (1).
The term “viral load” with respect to HCV in a mammal means the number of HCV mRNA genome copies per ml of serum present in the mammal. The viral load value can be measured, for example, by mRNA-PCR quantitation in blood samples using Cobas Amplicor HCV Monitor v 2.0 (Roche Diagnostics); Amplicor HCV v 2.0, Roche Diagnostics; HCV Transcription Mediated Amplification (TMA) assay, Bayer Diagnostics; HCV RNA Qualitative Testing (TMA) assay, Bayer Diagnostics; the HCV branched DNA (bDNA) assay version 3.0, Bayer Diagnostics; Versant HCV RNA 3.0 Assay (bDNA), Bayer Diagnostics, and Superquant assay, National Genetics Institute (Los Angeles, Calif.).
The degree of viral load reduction upon the administration of Compound (1) was a significant and unexpected finding, with some patients even experiencing up to a 3 log reduction in viral load within 48 hours after the first administration of Compound (1). […]

[4] = test system: NS3 protease-dependent polyprotein processing; assay: NS3 protease-dependent polyprotein processing in HCV replicon-containing cells; type: cell-based
From the text: as §1

[5] = Light sensitivity of the oral solution; type: physicochemical; conditions: solution in PEG 400:Ethanol 80:20 w/w
From the text: Keep away from direct sunlight and cover with aluminium foil whenever possible.

[6] = Single rising dose trial in healthy male subjects; type: in vivo, human
Description: as §2

SMILES: COc1ccc2c(O[C@@H]3C[C@H]4C(=O)N[C@]5(C(=O)O)C[C@H]5/C=C\CCCCC[C@H](NC(=O)OC5CCCC5)C(=O)N4C3)cc(-c3csc(NC(C)C)n3)nc2c1 [Compound (1)]
- Oral bioavailability [1]: orally bioavailable
- Ki [2]: 0.66 nM
- Inhibition of HCV RNA replication (HCV RNA replication): low nanomolar inhibition
- Ki [3]: 0.3 nM
- Reduction in viral load (HCV): ≤ 3 log
- Ability to block NS3 protease-dependent polyprotein processing [4]: block NS3 protease-dependent polyprotein processing
- Light sensitivity [5]: light sensitive
- Tolerability [6]: well tolerated up to 2000 mg
